Test results published in patent publication US7449114B2, “Halogenated solvent remediation” (SRP Technologies, Inc., priority 2000, dated 2008).

How the values were obtained:
[1] = Surface tension of electron donor solutions, pendant drop method; format: physicochemical; conditions: for change in surface tension: 0% ethyl lactate
Procedure: (§1) Based on the field results presented in Example 1, laboratory studies were performed to confirm that the enhanced bioavailability of TCE observed in the field was due to co-solvent or surfactant behavior resulting from the use of high concentrations of sodium lactate. Two fundamental properties used to screen the co-solvent or surfactant properties of a solution are surface tension and interfacial tension. Surface tension measures the force per unit length along the interface between a liquid and air due to its tension. When a co-solvent or surfactant is present in an aqueous liquid at increasing concentrations, the surface tension of that liquid decreases. Interfacial tension is similar to surface tension except that it measures the force per unit length along the interface between two liquid phases arising from the surface free energy. The higher the interfacial tension between two liquids, the less likely one is to dissolve into the other, and the more difficult it is for one to be transported within the other. […]
The laboratory study performed to confirm the co-solvent properties of the high concentration electron donor solution measured the surface tension of electron donor solutions at various concentrations. Next, interfacial tensions between the same electron donor solutions and nonaqueous phase TCE were measured. […] Surface and interfacial tension measurements were made using the pendant drop method (M. J. Rosen, ed., Structure/Performance Relationships in Surfactants, American Chemical Society, Washington D.C. 329 (1984); R. D. Bagnall & P. A. Arundel, The Profile Area of Pendant Drops, 82 J. Phys. Chem. 898 (1978)) coupled with real-time video imaging (M. D. Herd et al., Interfacial Tensions of Microbial Surfactants Determined by Real-Time Video Imaging of Pendant Drops, Proceedings paper number SPE/DOE 24206 513-519, SPE/DOE Eighth Symposium on Enhanced Oil Recovery, Tulsa, Okla. (1992)). […]

[2] = Interfacial tension between electron donor solutions and nonaqueous phase TCE, pendant drop method; format: physicochemical; conditions: 0% ethyl lactate
Procedure: as §1
The laboratory study performed to confirm the co-solvent properties of the high concentration electron donor solution measured the surface tension of electron donor solutions at various concentrations. Next, interfacial tensions between the same electron donor solutions and nonaqueous phase TCE were measured. […]

[3] = tested on: chloroethenes (primarily TCE) in ground water; assay: Field evaluation of enhanced in situ bioremediation, Test Area North (Example 1); conditions: all wells receiving significant lactate concentrations
Procedure: A 1-year field evaluation of enhanced in situ bioremediation was performed at Test Area North (“TAN”) of the Idaho National Engineering and Environmental Laboratory. […] The locations of a 5,000 μg/L TCE isopleth (14); 1,000 μg/L TCE isopleth (16); 100 μg/L TCE isopleth (18); and 5 μg/L TCE isopleth (20) are shown by solid lines. FIG. 2 illustrates a cross section of this site, showing the surface of the ground (22), an approximately 63-m (210-feet) fractured basalt unsaturation zone (24) (not drawn to scale), an approximately 60-m (200-feet) fractured basalt aquifer (26), and an impermeable clay interbed (28). […]
The initial electron donor addition strategy involved continuous injection of potable water at 37.85 liters/minute (10 gpm) into Well TSF-05. […] It was determined that the continuous injection of clean water at 37.85 liters/minute (10 gpm) overwhelmed the flux of contaminants from the secondary source. […] This was intended to prevent significant quantities of electron donor from collecting in the injection well and to help prevent biofouling. […]
Eleven monitoring wells (i.e., TAN-D2, TAN-9, TAN-10A, TAN-25, TAN-26, TAN-27, TAN-28, TAN-29, TAN-30A, TAN-31, and TAN-37) were sampled biweekly and analyzed for electron donors, biological activity indicators, competing inorganic electron acceptors and their reduced products, chloroethenes, ethene, pH, temperature, and specific conductivity.

[4] = tested on: PCE/TCE plume in ground water; assay: Sodium lactate injection pilot test, Tennessee Air National Guard Site, Memphis (Example 3); conditions: after 8 months and 4 lactate injections
Excerpt: Site Background. A site-wide Remedial Investigation (RI) identified a chlorinated solvent plume in a sandy aquifer approximately 35 to 60 feet (10.7 to 18.3 m) below ground surface at the 164th Airlift Wing at the Tennessee Air National Guard Site, Memphis, Tenn. The plume area targeted for treatment was over 2 acres (0.81 hectares). This unconfined saturated interval is overlain by an inorganic loess vadose zone and is separated from the deeper regional aquifer by a clay unit. PCE concentrations ranged from 5 to 1,000 μg/L in the target area, while TCE ranged from 100 to greater than 15,000 μg/L in the injection/monitoring wells. […] A pilot test of a sodium lactate injection system to enhance natural reductive dechlorination in the groundwater was approved by the Tennessee Department of Environment and Conservation, the Memphis and Shelby County Health Department, and the Shelby County Ground Water Control Board.
System Design. A three-dimensional model to simulate groundwater flow was developed using the MODFLOW simulator (U.S. Geological Survey). Once calibrated, model simulations were used to determine the optimal injection well locations, as well as the rate and duration of injection. Based on the results of other sodium lactate injection sites, a period of 60 days between injections was assumed. The optimal configuration was determined to be a 9-well injection system at an injection rate of 10 gallons per minute (gpm; 37.8 liters/minute) for 5 days.
Potable water was mixed with 60% sodium lactate to create a 1% solution. An existing 8-inch (20.3-cm) water line was tapped and connected to the distribution control header via a 4-inch (10.2-cm) line, which was housed in a portable 12-ft×14-ft (3.6-m×4.3-m) building. A double-check valve assembly was installed on the 4-inch (10.2-cm)water line to prevent back-siphoning of the injection solution into the 8-inch (20.3-cm) potable water line. Following a mixing zone with the potable water, the resulting 1% solution was delivered to the nine injection wells. […]

[5] = tested on: chlorinated ethenes (PCE, TCE) in groundwater; assay: Biostimulation pilot test, IR Site 40, Seal Beach (Example 4)
Procedure: A biostimulation pilot-test program for in situ anaerobic bioremediation of chlorinated ethenes in groundwater was conducted at Installation Restoration (IR) Program Site 40, Naval Weapons Station Seal Beach, Calif. IR Site 40 includes a concrete pit in a locomotive shop building and a gravel area north of and adjacent to the building. Oil and solvents spilled during locomotive maintenance collected in the pit and discharged to the gravel area via a drainpipe (FIG. 11). Groundwater was contaminated with chlorinated solvents, primarily PCE and trichloroethene (TCE). The plume extends over 100 meters (m) downgradient of the source area and is generally limited in extent to approximately 20 m below ground surface. The groundwater gradient is relatively flat and is influenced by tidal fluctuations. The net gradient direction is southeasterly. The Seal Beach National Wildlife Refuge lies downgradient of the site.
The tests were conducted in the area interpreted to have the highest PCE concentrations in groundwater. The tests were conducted over an 8-month period from August 2001 through mid-March 2002. Approximately 210,000 liters (55,500 gallons) of 3 percent sodium lactate solution was injected. A direct injection system was selected over recirculation to avoid reinjection of untreated water into the test cell. A 60 percent sodium lactate solution (JRW Technologies, Lenexa, Kans.) was diluted to 3 percent with potable water using a proportional injector (Dosatron International, Bordeaux, France). Lactate was injected at an average rate of approximately 3,550 gallons per week for the first 2 months. The average injection rate was then adjusted to approximately 750 gallons per week to maintain optimum electron-donor concentrations. No clogging or fouling effects were observed over the course of the pilot test. Water level measurements were performed during injection to assess the induced gradient.
Effects were monitored in seven wells in the pilot-test area. Two wells are located crossgradient and five downgradient of the injection well at distances ranging from approximately 2 to 30 m. Pretest groundwater samples were collected to establish baseline conditions. Weekly groundwater samples were collected during and analyzed on-site using field test kits for sulfate, ferrous iron, alkalinity, chemical oxygen demand (COD) (Hach, Loveland, Colo.), nitrate, and carbon dioxide (CHEMetrics, Calverton, Va.) and direct reading instrumentation for pH, temperature, conductivity, oxidation-reduction potential, and dissolved oxygen (YSI, Yellow Springs, Ohio). Monthly groundwater samples were analyzed off-site for volatile organic compounds, alkalinity, COD, anions, cations, total dissolved solids (Columbia Analytical Services, Kelso, Wash.), and dissolved gases (Performance Analytical, Simi Valley, Calif.). Samples were periodically analyzed for organic acids (Idaho National Engineering and Environmental Laboratory [INEEL], Idaho Falls, Id.), phospholipid fatty acids (Microbial Insights, Rockford, Tenn.), and DNA typing using quantitative polymerase chain reaction (PCR) and terminal restriction fragment length polymorphisms (T-RFLP) analyses (University of California, Berkeley, Calif.), according to methods well known in the art.

Row | effect on the solution's surface tension ([1]; 1% and 10% ethyl lactate added to sodium lactate solutions) | Structure (SMILES) | change in surface tension ([1]; sodium lactate 0.01 to 7%) | change in surface tension ([1]; sodium lactate increased to 30 and 60%) | interfacial tension as % of the value at 0.1% sodium lactate ([2]; sodium lactate 30%) | decrease of interfacial tension ([2]; sodium lactate increased from 0.1 to 3%) | reductive dechlorination of TCE to ethene [3] | TCE concentrations ([4]; 10 of 15 wells) | TCE concentration ([4]; well 03-010MW, pre-lactate around 5,690) | TCE concentration ([4]; well 03-020MW, pre-lactate around 4,600) | increase of PCE concentrations ([5]; at least one well, following injection) | reductive dechlorination of PCE and TCE ([5]; by the third month) | biomass (phospholipid fatty acid analysis) ([5]; close to the injection well) | radius of influence within which PCE was converted to DCE ([5]; crossgradient) | radius of influence within which PCE was converted to DCE ([5]; downgradient)
1 | pronounced effect | CCOC(=O)C(C)O (centres unmarked) [ethyl lactate] |  |  |  |  |  |  |  |  |  |  |  |  | 
2 |  | CC(O)C(=O)[O-].[Na+] (centres unmarked) [sodium lactate] | almost no change | dramatic decrease | 47% | about 26% | Enhanced reductive dechlorination of TCE to ethene was observed | below detectable levels and/or the maximum contaminant level (MCL) | approximately 50 μg/L | ~130 µg/L | greater than fifteen-fold | dramatically transformed to cis-1,2-DCE | increased up to an order of magnitude | approximately 6 m | ~8 m
